Data set [1] deals with tumor cell lines.
Method: (§2) The cells cultured in RPMI media and 10% fetal calf serum were treated with various concentrations of SEQ ID NO: 3 or SEQ ID NO: 19 at various concentrations for 24 hours and cell viability was determined using Vi-CELL automated cell counter.
For data set [2], the system named is normal human CD34 positive cells containing hematopoeitic progenitors (HSC). Conditions: 24 h exposure.
For data set [3], the system named is tumor cell lines. The data set can be described thus: Cell viability after 24 h treatment (Vi-CELL automated cell counter). Particulars: RPMI media and 10% fetal calf serum.
Method: as §2
Data set [4] concerns H-69 small cell carcinoma xenografts. The data set can be described thus: H-69 xenograft tumor size in nude mice. Format: in vivo. Conditions: 30 or 60 mg/kg of PEP-2 in PEGylated liposomes, every 4 days. The method, then:
(§1) Nude mice bearing the H-69 small cell carcinoma xenografts were treated with PEP-2 encapsulated in PEGylated liposomes as previously described. Female mice (20-22 g) were inoculated […] with 10 million tumor cells suspended in 50 uL of PBS and an equal volume of matrigel. When the tumors were approximately 50 mm 3, the animals were randomized into groups of 6 and either treated with 0.06 ml of empty PEGylated liposomes, or 0.03 ml of PEGylated liposomes (30 mg/kg of PEP-2) or 0.06 ml of PEGylated liposomes (60 mg/kg of PEP-2), every 4 days. Tumor size (FIG. 10) and animal weight (FIG. 11) was measured every three days. […] Treatment of mice bearing advanced Tumors (FIG. 12) and mice with advanced tumors tolerate the encapsulated PEP-2 liposome treatment (FIG. 13).

A short description of data set [5]: Tolerability in tumor-bearing nude mice. Conditions: 60 mg/kg dose; all animals recovered quickly. The format is in vivo. As to the method:
as §1

Where two headings read alike, the source gives them in different places. Where no end group is shown, it is not given here.

The term IC50 denotes the concentration needed to halve the response being measured. As to `CC[C@H](C)[C@H](NC(=O)[C@H](CCCCN)NC(=O)[C@@H](NC(=O)[C@H](CCC(N)=O)NC(=O)[C@@H](N)CCCNC(=N)N)[C@@H](C)CC)C(=O)N[C@@H](Cc1c[nH]c2ccccc12)C(=O)N[C@@H](Cc1ccccc1)C(=O)N[C@@H](CCC(N)=O)C(=O)N[C@@H](CC(N)=O)C(=O)N[C@@H](CCCNC(=N)N)C(=O)N[C@@H](CCCNC(=N)N)C(=O)N[C@@H](CCSC)C(=O)N[C@@H](CCCCN)C(=O)N[C@@H](Cc1c[nH]c2ccccc12)C(=O)N[C@@H](CCCCN)C(=O)N[C@@H](CCCCN)C(=O)N[C@@H](Cc1c[nH]cn1)C(=O)N[C@@H](Cc1c[nH]cn1)C(=O)N[C@@H](Cc1c[nH]cn1)C(=O)N[C@@H](CCCNC(=N)N)C(=O)N[C@@H](CC(C)C)C(=O)N[C@@H](CO)C(=O)N[C@@H](Cc1c[nH]cn1)C(=O)O` [SEQ ID NO: 3], the “growth inhibition / cytotoxicity in tumor cell lines” value (shortened to “growth inhibition / cytotoxicity”) in the data set on tumor cell lines [1] is recorded as “cytotoxic to most, but not all, tumor cell lines”. For the same compound, the 50% inhibitory concentration (IC50) in data set [2] is more than 80 µM.

For the compound `CC[C@H](C)[C@H](NC(=O)[C@H](CCCCN)NC(=O)[C@@H](NC(=O)[C@H](CCC(N)=O)NC(=O)[C@@H](N)CCCNC(=N)N)[C@@H](C)CC)C(=O)N[C@@H](Cc1c[nH]c2ccccc12)C(=O)N[C@@H](Cc1ccccc1)C(=O)N[C@@H](CCC(N)=O)C(=O)N[C@@H](CC(N)=O)C(=O)N[C@@H](CCCNC(=N)N)C(=O)N[C@@H](CCCNC(=N)N)C(=O)N[C@@H](CCSC)C(=O)N[C@@H](CCCCN)C(=O)N[C@@H](Cc1c[nH]c2ccccc12)C(=O)N[C@@H](CCCCN)C(=O)N[C@@H](CCCCN)C(=O)N[C@@H](C)C(=O)N[C@@H](C)C(=O)N[C@@H](C)C(=O)N[C@H](C(=O)N[C@@H](CC(C)C)C(=O)N[C@@H](CO)C(=O)N[C@@H](C)C(=O)O)C(C)C` [SEQ ID NO: 19, reference compound], the “growth inhibition / cytotoxicity” value with tumor cell lines [1] is on record as “little or no effect on cell growth”. For HHHRLSH [SEQ ID NO: 1, HHHRLSH], in the data set on tumor cell lines [3], the “growth inhibition / cytotoxicity” value is given as “did not inhibit growth”. On to “RQIKIWFQNRRIKWKKHHHRLSH (penetratin) [SEQ ID NO: 34]”, for which the tumor size result in data set [4] was “Decreases the Size of Tumors”. In addition, the acute adverse effect result in data set [5] is reported as “acute transient distress”.

Source of the values: US9314497B2, “E2F as a target of hormone refractory prostate cancer” (RUTGERS, THE STATE UNIVERSITY OF NEW JERSEY, priority 2009, dated 2016).
